Laboratory results taken from patent US20100256041A1, “Conjugate Molecule Compounds With Enhanced Cell Uptake Activity” (priority 2004, published 2010).
Values joined by “and” are separate entries in the source; they are usually repeats but may differ in a detail not shown here. Equal values may be shown once. Read-outs that look alike come from different tables or passages of the source. Square brackets hold non-standard residues; d marks the D form.

Columns and labels:
[1] = tested on: SiHa (humon cervix squamous carcinoma cell line); experiment: cells; format: cell-based, human
Protocol: (§1) Effects of a treatment with increasing concentrations of a conjugate molecule of the invention (D-Tat-chlorambucil) on the survival of MCF-7 (human breast adenocarcinoma cell line) and SiHa (humon cervix squamous carcinoma cell line) was determined. The effects of D-Tat-chlorambucil was compared to the conjugate L-Tat-chlorambucil and to two unconjugated anti-cancer drugs (Chlorambucil and Cisplatin). Cells of each cell line (10′000 cells per well) were plated into 96 well plates (200 μtotal volume of MEM supplemented with 10% FBS, 1% L-glutamine, 1% Na-pyruvate, 1% non-essential amino acids for MCF-7 and of MEM/Earle's supplemented with 10% FBS, 1% Na-pyruvate, 1% non-essential amino acids for SiHa cells). 6 to 10 different concentrations for each test substance were tested. The control cells are non-treated. Cells were incubated at 37° C. for 24 h before treatment with the test substance. Each experiment was carried in triplicate. Cell incubation after treatment was performed for 96 hours at 37° C. The effects of the test molecules on the survival of these cell lines (in vitro cytotoxic activity) was measured by the MTT assay. 20 μl of a 5 mg/ml 0.22 μm filtered Thiazolyl Blue Tetrazolium Bromide solution (MTT, Sigma, Ref. No. 88415) in Phosphate Buffered saline (PBS, CHUV) were added to each well and the plate was incubated for 4 hours at 37° C. The supernatant was removed and formazan crystals were dissolved with DMSO (200 μl per well). Absorbancy (OD) was measured in a microplate reader at 595 nm
(§2) (Expert Plus Reader, Asys Hitech). The IC50 (concentration of the drug inhibiting 50% of the cell growth) for the test substances was calculated using Prism software.

MRC-5 (human fibroblast) = experiment: MTT cell survival assay, 96 h treatment (Example 1); format: cell-based; conditions: MRC-5 fibroblast cells
Protocol: Effects of a treatment with increasing concentrations of a conjugate molecule of the invention (Cisplatin-D-TAT) and an unconjugated anti-cancer drug (Cisplatin) on the survival of IGROV-1 (ovary), IGROV-1/CDDP (ovary, cisplatin-resistant cell line), MCF-7 (breast), and MRC-5 (human fibroblast) (three human tumor cell lines and one human fibroblast cell line) was determined. Cells of each cell line were plated out (200 μl final volume of RPMI 1640 supplemeted with 10% FBS) in 96 well plates (5 different concentrations for each test substance, one control experiment) 5,000 to 40,000 cells per well (depending on the doubling time for each cell line) were incubated at 37° C. for 24 h before treatment with the test substances. Each experiment was carried 4×. Cell incubation after treatment was performed for 96 h at 37° C. The effects of Cisplatin-D-TAT and Cisplatin on the survival of these cell lines (in vitro cytotoxic activity) were measured by using an MTT assay. 20 μl of a 5 mg/ml solution 0.22 μl filtered tetrazolium reagent (MTT, Ref. M2003, Sigma) in Phosphate Buffered Saline (PBS, Ref BE17-517Q, Cambrex) were aded in each well. […] Absorbancy (OD) was determined in each well on a single wavelength spectrophotometer plate reader at 570 nm (Multiskan, Labsystem, Helsinki, Finland) Data were collected with Genesis software (Labsystem, Helsinki, Finland). […]

MCF-7 (breast) = experiment: as above; format: cell-based, human; conditions: MCF-7 cells
Protocol: (§3) Effects of a treatment with increasing concentrations of a conjugate molecule of the invention (Cisplatin-D-TAT) and an unconjugated anti-cancer drug (Cisplatin) on the survival of IGROV-1 (ovary), IGROV-1/CDDP (ovary, cisplatin-resistant cell line), MCF-7 (breast), and MRC-5 (human fibroblast) (three human tumor cell lines and one human fibroblast cell line) was determined. Cells of each cell line were plated out (200 μl final volume of RPMI 1640 supplemeted with 10% FBS) in 96 well plates (5 different concentrations for each test substance, one control experiment) 5,000 to 40,000 cells per well (depending on the doubling time for each cell line) were incubated at 37° C. for 24 h before treatment with the test substances. Each experiment was carried 4×. Cell incubation after treatment was performed for 96 h at 37° C. The effects of Cisplatin-D-TAT and Cisplatin on the survival of these cell lines (in vitro cytotoxic activity) were measured by using an MTT assay. 20 μl of a 5 mg/ml solution 0.22 μl filtered tetrazolium reagent (MTT, Ref. M2003, Sigma) in Phosphate Buffered Saline (PBS, Ref BE17-517Q, Cambrex) were aded in each well. Culture plates were incubated for 4 h at 37° C. The resulting supernatant was removed and formazan crystals were dissolved with 200 μl of DMSO per well. Absorbancy (OD) was determined in each well on a single wavelength spectrophotometer plate reader at 570 nm (Multiskan, Labsystem, Helsinki, Finland) Data were collected with Genesis software (Labsystem, Helsinki, Finland). IC50 (concentration of the drug inhibiting 50% of the cell growth) for the test substances was calculated for each cell line after plotting. Control cells were treated with vehicle.

IGROV-1 (ovary) = experiment: as above; format: cell-based, human; conditions: IGROV-1 cells, mean of four measurements
Protocol: as §3

[2] = tested on: IGROV-1/CDDP (ovary, cisplatin-resistant cell line); experiment: as above; format: cell-based, human; conditions: for IC50: IGROV-1/CDDP cisplatin-resistant cells, MTT, 96 h, mean of four measurements; for resistance index of IGROV-1/CDDP compared to parental IGROV-1 cell line: approximate; for Resistance Index of IGROV-1/CDDP versus IGROV-1 cell line: ratio of IC50 IGROV-1/CDDP to IGROV-1
Protocol: as §3

[3] = tested on: MCF-7 (human breast adenocarcinoma cell line); experiment: cells; format: cell-based
Protocol: as §1, §2

[4] = tested on: SiHa (human cervix squamous carcinoma cell line); experiment: MTT cell survival assay, 96 h treatment (Example 2, oxaliplatin conjugates); format: cell-based; conditions: SiHa cells, Example 2, triplicate
Protocol: (§4) Effects of a treatment with increasing concentrations of a conjugate molecule of the invention (D-Tat-oxaliplatin) on the survival of MCF-7 (human breast adenocarcinoma cell line) and SiHa (human cervix squamous carcinoma cell line) was determined. The effects of D-Tat-oxaliplatin was compared to the conjugate L-Tat-oxaliplatin and to two unconjugated anti-cancer drugs (Oxaliplatin and Cisplatin). Cells of each cell line (10′000 cells per well) were plated into 96 well plates (200 μl total volume of MEM supplemented with 10% FBS, 1% L-glutamine, 1% Na-pyruvate, 1% non-essential amino acids for MCF-7 and of MEM/Earle's supplemented with 10% FBS, 1% Na-pyruvate, 1% non-essential amino acids for SiHa cells). 6 to10 different concentrations for each test substance were tested. The control cells are non-treated. Cells were incubated at 37° C. for 24 h before treatment with the test substance. Each experiment was carried in triplicate. Cell incubation after treatment was performed for 96 hours at 37° C. The effects of the test molecules on the survival of these cell lines (in vitro cytotoxic activity) was measured by the MTT assay. 20 μl of a 5 mg/ml 0.22 μm filtered Thiazolyl Blue Tetrazolium Bromide solution (MTT, Sigma, Ref. No. 88415) in Phosphate Buffered saline (PBS, CHUV) were added to each well and the plate was incubated for 4 hours at 37° C. The supernatant was removed and formazan crystals were dissolved with DMSO (200 μl per well). Absorbancy (OD) was measured in a microplate reader at 595 nm (Expert Plus Reader, Asys Hitech). The IC50 (concentration of the drug inhibiting 50% of the cell growth) for the test substances was calculated using Prism software.

[5] = tested on: MCF-7 (human breast adenocarcinoma cell line); experiment: as above; format: cell-based; conditions: MCF-7 cells, Example 2, triplicate
Protocol: as §4

[6] = Octanol/water partition (shake-flask, HPLC at 214 nm), water solubility; conditions: 1 mM, 24 hours equilibration at room temperature, FIG. 10

Compound	IC50 (MRC-5 (human fibroblast))	IC50 (MCF-7 (breast))	IC50 (IGROV-1 (ovary))	IC50 [2]	resistance index of IGROV-1/CDDP compared to parental IGROV-1 cell line [2]	Resistance Index of IGROV-1/CDDP versus IGROV-1 cell line [2]	IC50 [4]	IC50 [5]	water solubility (compound partitioned in water, octanol/water) [6]	also measured
N.N.[Cl][Pt][Cl] [Cisplatin, cis-diamindichloroplatin (II)]	4.88 µM	2.68 µM	1.2 µM	52.3 µM	approximately 40 fold	43.6	11.1 µM	9.1 µM		IC50 ([1]; SiHa cells, MTT, 96 h, Example 3, triplicate, read-out: IC50): 7 µM and 7.03 µM; IC50 ([3]; MCF-7 cells, MTT, 96 h, Example 3, triplicate, read-out: IC50): 7 µM and 7.96 µM
O=C(O)CCCc1ccc(N(CCCl)CCCl)cc1 [chlorambucil]									very low water solubility	IC50 ([1]; Homo sapiens, SiHa): > 1000 µM; IC50 ([1]; Homo sapiens, SiHa, 96 h): > 1000 µM; IC50 ([3]; Homo sapiens, MCF7): > 1000 µM; IC50 ([3]; Homo sapiens, MCF7, 96 h): > 1000 µM
COc1cccc2c1C(=O)c1c(O)c3c(c(O)c1C2=O)C[C@@](O)(C(=O)CO)C[C@@H]3O[C@H]1C[C@H](N)[C@H](O)[C@H](C)O1 [doxorubicine]									almost perfectly soluble in water	
O=C(O)C(=O)O.[NH-][C@@H]1CCCC[C@H]1[NH-].[Pt+2] [oxaliplatin]							11.1 µM	1.5 µM		
CC(C)(C)NC(=O)[C@@H]1C[C@@H]2CCCC[C@@H]2CN1C[C@@H](O)[C@H](Cc1ccccc1)NC(=O)[C@H](CC(N)=O)NC(=O)c1ccc2ccccc2n1 [saquinavir]									only partially soluble in water	
Cisplatin-D-TAT (H-[dM]GG[dR][dR][dR][dQ][dR][dR][dK][dK][dR]-NH2; also: cisplatin conjugate)	20.6 µM	4.89 µM	18.4 µM	35.3 µM	approximately two	1.9				
